From patent US20260356957A1, “METHODS FOR TREATMENT OF NON-SMALL CELL LUNG CANCER (NSCLC)” (Janssen Biotech, Inc., priority 2023, published 2026)
Entries after “also recorded” stand apart in the source; their conditions may differ.

Legend:
Format in all cases: in vivo, human
[1] = system: EGFR-mutated NSCLC with brain metastasis; assay: MARIPOSA Phase 3, intracranial PFS by BICR in participants with history of brain metastasis
Excerpt: • 1. […] Intracranial PFS [Time Frame: Up to approximately 42 months]. […] Incidence and Severity of Adverse Events (AEs) [Time Frame: Up to approximately 60 months]. Incidence and severity of treatment emergent adverse events (TEAEs) will be reported. Any adverse event occurring at or after the initial administration of study treatment through the day of last dose plus 30 days, or until the start of subsequent anticancer therapy (if earlier), is considered to be treatment emergent. • 8. Number of Participants with Clinical Laboratory Abnormalities [Time Frame: Up to approximately 60 months]. Number of participants with clinical laboratory abnormalities (serum chemistry, hematology, blood coagulation, and urine samples) will be reported. • 9. Number of Participants with Vital Signs Abnormalities [Time Frame: Up to approximately 60 months]. Number of participants with vital signs abnormalities (temperature, heart rate, respiratory rate, oxygen saturation, blood pressure) will be reported. • 10. Number of Participants with Physical Examination Abnormalities [Time Frame: Up to approximately 60 months]. Number of participants with physical examination abnormalities will be reported. • 11. […] Number of Participants with Anti-Amivantamab Antibodies [Time Frame: Up to approximately 42 months]. […] Change from Baseline in Non-Small Cell Lung Cancer-Symptom Assessment Questionnaire (NCSLC-SAQ) [Time Frame: Baseline Up to approximately 42 months]. The NSCLC-SAQ contains 7 items that assess cough, pain, dyspnea, fatigue, and poor appetite over a 7-day recall period. Each multi-item scale and individual item will be summarized using count and percent by visit. • 15. Change from Baseline in European Organization of Research and Treatment of Cancer Quality of Life Questionnaire Core 30 (EORTC-QLQ-C30) [Time Frame: Baseline Up to approximately 42 months]. EORTC-QLQ-C30 is a core 30-item questionnaire for evaluating the health-related quality of life (HRQOL) of participants participating in cancer clinical studies. • 16.

[2] = system: EGFR-mutated locally advanced or metastatic NSCLC; assay: MARIPOSA Phase 3, time to subsequent therapy (TTST) and subsequent therapy
[3] = system: EGFR-mutated locally advanced or metastatic NSCLC; assay: MARIPOSA Phase 3, progression-free survival after first subsequent therapy (PFS2)
Excerpt: The efficacy population included all patients who had undergone randomization. Tick marks indicate censoring of data. […]

[4] = system: EGFR-mutated locally advanced or metastatic NSCLC; assay: MARIPOSA Phase 3, overall survival; details: for Median overall survival (95% CI): interim analysis
[5] = system: EGFR-mutated locally advanced or metastatic NSCLC; assay: MARIPOSA Phase 3, extracranial progression-free survival by BICR; details: CNS-only first progression censored
Excerpt: The efficacy population included all patients who had undergone randomization. Extracranial progression-free survival was defined as time from randomization to disease progression (detected by extracranial scans) or death. If first progression was detected solely in the CNS, these patients were censored at the time of CNS disease progression. The dashed lines indicate the median extracranial progression-free survival in the two groups; tick marks indicate censoring of data. 95% CI widths have not been adjusted for multiplicity and cannot be used to infer definitive treatment effects. CNS denotes central nervous system. Since MARIPOSA performed serial brain imaging, a sensitivity analysis was conducted censoring CNS-only, first progression events.

C=CC(=O)Nc1cc(Nc2nccc(-c3cn(C)c4ccccc34)n2)c(OC)cc1N(C)CCN(C)C [Osimertinib]
Event (intracranial PFS) [1]: 75 (43.6%) (%) | Intracranial PFS 6-month event-free rate (95% CI) [1]: 0.88 (0.82, 0.92) | Intracranial PFS time to event, 75th percentile (95% CI) ([1]; NE = not estimable): NE (NE, NE) | Censored (TTST) ([2]; Full Analysis Set): 232 (54.1%) (%) | Event (TTST) ([2]; Full Analysis Set): 197 (45.9%) (%) | TTST 6-month event-free rate (95% CI) ([2]; Full Analysis Set): 0.91 (0.88, 0.93) | TTST 12-month event-free rate (95% CI) ([2]; Full Analysis Set): 0.77 (0.73, 0.81) | TTST 18-month event-free rate (95% CI) ([2]; Full Analysis Set): 0.63 (0.58, 0.67) | TTST Median (95% CI) ([2]; Full Analysis Set): 24.08 (22.01, 28.98) months | TTST time to event, 25th percentile (95% CI) ([2]; Full Analysis Set): 13.11 (10.58, 14.36) months | TTST time to event, 75th percentile (95% CI) ([2]; NE = not estimable): NE (NE, NE) | Censored (PFS2) ([3]; Full Analysis Set): 299 (60.7%) (%) | Event (PFS2) ([3]; Full Analysis Set): 130 (30.3%) (%) | PFS2 6-month event-free rate (95% CI) ([3]; Full Analysis Set): 0.95 (0.93, 0.97) | PFS2 18-month event-free rate (95% CI) ([3]; Full Analysis Set): 0.76 (0.71, 0.80) | PFS2 30-month event-free rate (95% CI) ([3]; Full Analysis Set): 0.56 (0.46, 0.66) | PFS2 Median (95% CI) ([3]; Full Analysis Set): NE (29.31, NE) | PFS2 time to event, 25th percentile (95% CI) ([3]; Full Analysis Set): 18.40 (15.93, 20.50) months | PFS2 time to event, 75th percentile (95% CI) ([3]; NE = not estimable): NE (NE, NE) | Censored (OS) ([4]; Full Analysis Set): 312 (72.7%) (%) | Event (OS) ([4]; Full Analysis Set): 117 (27.3%) (%) | OS 6-month event-free rate (95% CI) ([4]; Full Analysis Set): 0.96 (0.93, 0.97) | OS 12-month event-free rate (95% CI) ([4]; Full Analysis Set): 0.88 (0.85, 0.91) | OS 18-month event-free rate (95% CI) ([4]; Full Analysis Set): 0.79 (0.75, 0.83) | OS 30-month event-free rate (95% CI) ([4]; Full Analysis Set): 0.62 (0.52, 0.70) | OS time to event, 25th percentile (95% CI) ([4]; Full Analysis Set): 20.30 (18.00, 23.59) months | OS time to event, 75th percentile (95% CI) ([4]; NE = not estimable): NE (NE, NE) | Overall survival, Patients (95% CI) at 12 months ([4]; efficacy population): 88 (85-91) % | Overall survival, Patients (95% CI) at 18 months ([4]; efficacy population): 79 (75-83) % | Overall survival, Patients (95% CI) at 24 months ([4]; efficacy population): 69 (64-74) % | Median overall survival (95% CI) ([4]; NE = not estimable): NE (NE, NE) | Median overall survival (95% CI) ([4]; NE = not estimable, listed as osimertinib): not reached; also recorded: could not be estimated | Median extracranial progression-free survival (95% CI) [5]: 18.4 months
